Source: patent US8334302B2, “Synthesis and anti-proliferative effect of substituted imidazo[4,5-b]pyridine compounds” (Spelman College, priority 2008, dated 2012)

Assays:
[1] = test system: PC-3 human prostate cancer cells; experiment: Inhibition of cell proliferation in PC-3 cells, DNA assay (Hoechst 33258); type: cell-based; settings: for IC50: Homo sapiens, inhibition of PC-3 cells, read-out: PC3 IC50
Protocol: Cell Culture and Drug Treatment. PC-3 human prostate cancer cells were seeded in duplicate 96 well tissue culture plates at 500 cells/well in 80-μL Dulbecco's […] (DMEM) supplemented with 5% fetal bovine serum (FBS) and nonessential amino acids and 1% equimolar mixture of streptomycin-penicllin. The flasks were incubated in a humidified 95% air/5% CO2 atmosphere. The cells were grown for at least 24 hours to ensure that they were in the early log phase of growth. Cells were then treated with 20-μL drug solutions (stock 10 mM drug solution in DMSO was diluted in DMEM containing 5% FBS such that final DMSO concentration is less than 1%) of appropriate final concentration by serial dilution. Untreated control cells received 20-μL DMEM containing 5% FBS. Six wells of each plate received the same drug concentration. Thus, each data point and error bars are an average and standard deviation of readings from 12 wells treated with identical drug concentration.
DNA Assay. After appropriate time of incubation, DNA assay was performed. For DNA assay, each culture plate was washed with 25% PBS and incubated in deionized double distilled water for at least one hour at room temperature. Plates were frozen at −70° C. and thawed/equilibrated to room temperature. Hoechst 33258 DNA binding dye was then added to each well in 200-μL of high salt TNE buffer (10 mM Tris, 1 mM EDTA, 2 M NaCl [pH 7.4]) at a final concentration of 6.7-μg/mL. After further incubation at room temperature for 2 hours under protection from light, culture plates were scanned on the CytoFluor 2350™ scanner using the 360/460 nm filter excitation and emission set. Readings from all plates were normalized to the fluorescence of control untreated cells and all data were expressed as the percent control.

CK2(h) = target: T1, CK2(h) (Homo sapiens, UniProt P68400); experiment: Kinase assay, Millipore KinaseProfiler, radiometric; type: biochemical; settings: CK2(h) activity in presence of compound
T1 construct: purchased Millipore (KinaseProfiler Service)
Protocol: (§1) Kinase Assays. Kinase assays were conducted by Millipore's KinaseProfiler Service to determine the amount of ATP phosphorylation that occurs in the presence of a benzimidazole molecule. Kinases assayed included IKKβ, CK2, CDK1/cyclinB, GSK3β, and p70S6K. The desired kinase was treated with the benzimidazole compound The reaction were initiated by the addition of the MgATP mix. After incubation for 40 minutes at room temperature, the reaction is stopped by the addition of 3% phosphoric acid solution. 10 μL of the reaction was then spotted onto a P30 filtermat and washed three times for 5 minutes in 75 mM phosphoric acid and once in methanol prior to drying and scintillation counting. The kinase activity was measured radiometrically to determine the amount of ATP phosphorylation produced. All assays were done in triplicate.

IKKβ(h) = target: T2, IKKβ(h) (Homo sapiens, UniProt O14920); experiment: as above; type: biochemical; settings: IKKβ(h) activity in presence of compound
T2 construct: purchased Millipore (KinaseProfiler Service)
T2 sequence (O14920 1-756): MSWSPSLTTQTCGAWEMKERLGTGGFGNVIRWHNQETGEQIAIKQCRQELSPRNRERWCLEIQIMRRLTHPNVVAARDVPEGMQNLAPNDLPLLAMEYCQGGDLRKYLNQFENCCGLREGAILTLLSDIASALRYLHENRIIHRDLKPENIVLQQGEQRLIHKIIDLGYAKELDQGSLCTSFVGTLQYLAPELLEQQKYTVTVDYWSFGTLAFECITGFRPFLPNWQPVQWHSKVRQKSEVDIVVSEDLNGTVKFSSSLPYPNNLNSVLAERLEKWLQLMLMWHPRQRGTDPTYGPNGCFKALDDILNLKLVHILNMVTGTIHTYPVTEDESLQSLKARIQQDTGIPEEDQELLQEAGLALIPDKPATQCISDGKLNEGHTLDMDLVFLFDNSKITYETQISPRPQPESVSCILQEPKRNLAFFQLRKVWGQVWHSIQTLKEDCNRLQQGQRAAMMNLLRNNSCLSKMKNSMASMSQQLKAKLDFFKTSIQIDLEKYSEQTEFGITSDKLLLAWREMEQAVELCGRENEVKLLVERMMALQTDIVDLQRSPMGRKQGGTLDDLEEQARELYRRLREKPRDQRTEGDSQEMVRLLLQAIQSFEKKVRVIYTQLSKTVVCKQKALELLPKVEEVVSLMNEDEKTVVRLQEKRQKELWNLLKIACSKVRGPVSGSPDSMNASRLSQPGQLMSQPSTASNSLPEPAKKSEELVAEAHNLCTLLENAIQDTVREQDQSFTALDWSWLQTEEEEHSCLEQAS
Protocol: as §1

p70S6K(h) = target: T3, p70S6K(h) (Homo sapiens, UniProt P23443); experiment: as above; type: biochemical; settings: p70S6K(h) activity in presence of compound
T3 construct: purchased Millipore (KinaseProfiler Service)
Protocol: as §1

GSK3β(h) = target: T4, GSK3β(h) (Homo sapiens, UniProt P49841); experiment: as above; type: biochemical; settings: GSK3β(h) activity in presence of compound
T4 construct: purchased Millipore (KinaseProfiler Service)
Protocol: as §1

CDK1/cyclinB(h) = target: T5, CDK1/cyclinB(h) (Homo sapiens, UniProt P06493); experiment: as above; type: biochemical; settings: CDK1/cyclinB(h) activity in presence of compound
T5 construct: purchased Millipore (KinaseProfiler Service)
Protocol: as §1

PC-3 cells = settings: micromolar concentrations; cited from earlier work
PDK1(h) = target: T6, PDK1(h) (Homo sapiens, UniProt O15530); experiment: Kinase assay, Millipore KinaseProfiler, radiometric; type: biochemical; settings: PDK1(h) activity in presence of compound
T6 construct: purchased Millipore (KinaseProfiler Service)
T6 sequence (O15530 1-556): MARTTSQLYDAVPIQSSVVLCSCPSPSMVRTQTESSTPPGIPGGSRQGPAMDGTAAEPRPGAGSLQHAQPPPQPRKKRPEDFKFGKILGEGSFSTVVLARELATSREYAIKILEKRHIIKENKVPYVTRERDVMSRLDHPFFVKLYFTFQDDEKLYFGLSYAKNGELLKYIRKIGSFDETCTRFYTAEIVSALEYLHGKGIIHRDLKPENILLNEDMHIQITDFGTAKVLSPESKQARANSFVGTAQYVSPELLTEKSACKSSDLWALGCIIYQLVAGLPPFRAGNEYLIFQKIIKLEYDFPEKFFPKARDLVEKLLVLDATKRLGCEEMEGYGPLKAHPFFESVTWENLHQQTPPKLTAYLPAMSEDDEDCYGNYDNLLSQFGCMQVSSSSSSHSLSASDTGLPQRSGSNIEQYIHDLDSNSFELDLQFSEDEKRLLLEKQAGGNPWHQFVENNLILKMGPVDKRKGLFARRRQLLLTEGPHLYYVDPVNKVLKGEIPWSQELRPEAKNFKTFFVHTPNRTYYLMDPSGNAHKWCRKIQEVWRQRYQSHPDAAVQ

T3 sequence (P23443 whole entry): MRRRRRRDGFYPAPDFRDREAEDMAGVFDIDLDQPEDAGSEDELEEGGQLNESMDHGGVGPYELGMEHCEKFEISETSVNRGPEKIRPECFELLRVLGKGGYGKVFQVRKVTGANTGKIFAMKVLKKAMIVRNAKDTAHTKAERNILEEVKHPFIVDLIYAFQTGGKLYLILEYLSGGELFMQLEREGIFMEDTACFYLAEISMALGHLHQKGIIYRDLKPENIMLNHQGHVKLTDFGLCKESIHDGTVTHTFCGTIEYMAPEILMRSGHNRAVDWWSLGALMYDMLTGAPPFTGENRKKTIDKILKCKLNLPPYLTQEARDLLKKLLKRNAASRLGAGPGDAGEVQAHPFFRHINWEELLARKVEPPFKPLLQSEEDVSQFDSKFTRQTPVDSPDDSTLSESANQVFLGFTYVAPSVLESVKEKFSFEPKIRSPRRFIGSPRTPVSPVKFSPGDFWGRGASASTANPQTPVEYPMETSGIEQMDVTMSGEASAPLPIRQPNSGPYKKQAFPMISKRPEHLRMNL
T5 sequence (P06493 whole entry): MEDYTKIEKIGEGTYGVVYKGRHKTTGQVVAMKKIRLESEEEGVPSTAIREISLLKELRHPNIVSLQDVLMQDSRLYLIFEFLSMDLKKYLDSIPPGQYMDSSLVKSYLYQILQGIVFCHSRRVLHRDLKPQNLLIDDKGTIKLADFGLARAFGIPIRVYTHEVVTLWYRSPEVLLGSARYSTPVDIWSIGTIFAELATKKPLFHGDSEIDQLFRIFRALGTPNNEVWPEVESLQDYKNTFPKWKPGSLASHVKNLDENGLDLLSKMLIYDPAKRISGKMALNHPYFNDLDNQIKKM
T5 sequence (P14635 whole entry partner): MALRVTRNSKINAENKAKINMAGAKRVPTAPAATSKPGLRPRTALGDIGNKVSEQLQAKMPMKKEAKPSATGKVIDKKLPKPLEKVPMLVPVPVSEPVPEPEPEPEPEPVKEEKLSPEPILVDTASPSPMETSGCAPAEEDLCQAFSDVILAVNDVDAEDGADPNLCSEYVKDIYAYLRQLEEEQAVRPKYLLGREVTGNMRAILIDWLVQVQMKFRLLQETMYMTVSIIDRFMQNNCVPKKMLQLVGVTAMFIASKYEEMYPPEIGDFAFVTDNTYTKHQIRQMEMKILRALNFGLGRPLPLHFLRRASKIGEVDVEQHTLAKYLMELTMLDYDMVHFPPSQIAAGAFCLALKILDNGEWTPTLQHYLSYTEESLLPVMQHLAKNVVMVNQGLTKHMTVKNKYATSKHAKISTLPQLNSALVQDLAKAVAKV
T1 sequence (P68400 whole entry): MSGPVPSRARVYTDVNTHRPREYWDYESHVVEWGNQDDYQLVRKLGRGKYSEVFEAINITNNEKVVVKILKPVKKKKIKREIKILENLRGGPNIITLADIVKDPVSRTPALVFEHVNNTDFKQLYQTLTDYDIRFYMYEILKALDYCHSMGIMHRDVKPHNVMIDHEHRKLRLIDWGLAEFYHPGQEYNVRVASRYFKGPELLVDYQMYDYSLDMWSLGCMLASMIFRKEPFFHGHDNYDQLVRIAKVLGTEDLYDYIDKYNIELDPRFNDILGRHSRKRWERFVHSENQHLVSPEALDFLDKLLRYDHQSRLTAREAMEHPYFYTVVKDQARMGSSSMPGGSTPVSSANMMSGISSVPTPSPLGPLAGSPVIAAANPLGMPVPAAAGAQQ
T1 sequence (P67870 whole entry partner): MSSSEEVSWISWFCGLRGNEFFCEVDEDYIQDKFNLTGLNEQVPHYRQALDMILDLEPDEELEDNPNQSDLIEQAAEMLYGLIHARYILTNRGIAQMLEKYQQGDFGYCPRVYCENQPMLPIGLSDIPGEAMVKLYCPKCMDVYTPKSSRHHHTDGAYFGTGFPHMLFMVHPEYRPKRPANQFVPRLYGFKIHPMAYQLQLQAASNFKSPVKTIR
T4 sequence (P49841 whole entry): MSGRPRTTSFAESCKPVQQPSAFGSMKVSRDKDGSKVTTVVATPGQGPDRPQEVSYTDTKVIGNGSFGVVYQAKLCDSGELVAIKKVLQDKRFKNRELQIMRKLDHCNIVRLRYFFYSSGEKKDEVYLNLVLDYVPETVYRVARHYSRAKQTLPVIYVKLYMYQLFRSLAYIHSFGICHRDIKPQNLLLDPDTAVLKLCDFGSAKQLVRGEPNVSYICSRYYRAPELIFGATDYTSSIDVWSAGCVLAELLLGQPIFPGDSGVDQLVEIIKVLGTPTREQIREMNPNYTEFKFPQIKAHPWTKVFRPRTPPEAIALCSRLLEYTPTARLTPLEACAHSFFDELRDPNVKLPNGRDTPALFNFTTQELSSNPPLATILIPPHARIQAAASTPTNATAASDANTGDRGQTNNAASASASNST

| SMILES | IC50 [1] [µM] | % Activity (CK2(h)) [%] | % Activity (IKKβ(h)) [%] | % Activity (p70S6K(h)) [%] | % Activity (GSK3β(h)) [%] | % Activity (CDK1/cyclinB(h)) [%] | other results |
| --- | --- | --- | --- | --- | --- | --- | --- |
| Cc1ccc(-n2c(-c3ccc(S(N)(=O)=O)cc3)nc3ccccc32)cc1 [Compound 206, 4-[1-(4-methylphenyl)-1H-benzo[d]imidazol-2-yl]benzenesulfonamide] | 24 | 92 | 86 | 33 | 72 | 7 | antiproliferative effect in PC-3 cells (in words) ([1]; PC-3 human prostate cancer cells, DNA assay, FIG. 1): slightly more effective |
| NS(=O)(=O)c1ccc(-n2nc(C(F)(F)F)cc2-c2ccc3ccccc3c2)cc1 [Compound 205] | 10 | – | – | – | – | – | – |
| FC(F)(F)c1cc(-c2ccc3c(ccc4ccccc43)c2)n(-c2ccc(-c3nnn[nH]3)cc2)n1 [Compound 203] | 32 | – | – | – | – | – | – |
| NS(=O)(=O)c1ccc(-c2nc3ccccc3n2-c2ccc(Oc3ccccc3)cc2)cc1 [Compound 210] | – | 99 | 72 | 18 | 7 | 16 | – |
| NS(=O)(=O)c1ccc(-c2nc3ccccc3n2-c2ccc(-c3ccccc3)cc2)cc1 [Compound 211] | – | 99 | 71 | 17 | 13 | 11 | – |
| Cc1ccc(-c2cc(C(F)(F)F)nn2-c2ccc(S(N)(=O)=O)cc2)cc1 [Compound 201, Celecoxib] | 30 | – | – | – | – | – | – |
| N=C(N)Nc1ccc(-n2nc(C(F)(F)F)cc2-c2ccc3c(ccc4ccccc43)c2)cc1 [Compound 202, OSU-03013] | 3 | – | – | – | – | – | concentration diminishing cell proliferation, relative to celecoxib (PC-3 cells): thirty-fold lower |
| NS(=O)(=O)c1ccc(-c2nc3ccccc3n2-c2ccc3ccccc3c2)cc1 [Compound 208] | 10 | – | – | – | – | – | – |
| CC(C)(C)c1ccc(-c2cc(C(F)(F)F)nn2-c2ccc(S(N)(=O)=O)cc2)cc1 [Compound 204] | 18 | – | – | – | – | – | – |
| CC(C)(C)c1ccc(-n2c(-c3ccc(S(N)(=O)=O)cc3)nc3ccccc32)cc1 [Compound 207, 4-(1-(4-tert-butylphenyl)-1H-benzo[d]imidazol-2-yl)benzenesulfonamide] | 20 | – | – | – | – | – | – |
| NS(=O)(=O)c1ccc(-c2nc3ccccc3n2-c2ccc(Cc3ccccc3)cc2)cc1 [Compound 209, 4-(1-(4-benzylphenyl)-1H-benzo[d]imidazol-2-yl)benzenesulfonamide] | – | 22 | 25 | 12 | 5 | 36 | % Activity (PDK1(h)): 30% |
